What was measured:
[1] = target: PD-L1 His protein / PD-1 Fc protein (Homo sapiens (Human), UniProt Q9NZQ7); assay: HTRF Assay (PD-1/PD-L1 interaction); assay type: binding; settings: PD-L1 His 6 nM, PD-1 Fc 6 nM
human PD-L1 = human PD-L1 (Homo sapiens (Human), UniProt Q9NZQ7); assay: T cell activation luciferase reporter cell culture system (T Cell Activation Assay); assay type: cell-based; settings: luciferase reporter assay; PD-L1 aAPC/CHO-K1 cells with PD-1 effector Jurkat T cells
Sequence of human PD-L1 (Q9NZQ7 19-290): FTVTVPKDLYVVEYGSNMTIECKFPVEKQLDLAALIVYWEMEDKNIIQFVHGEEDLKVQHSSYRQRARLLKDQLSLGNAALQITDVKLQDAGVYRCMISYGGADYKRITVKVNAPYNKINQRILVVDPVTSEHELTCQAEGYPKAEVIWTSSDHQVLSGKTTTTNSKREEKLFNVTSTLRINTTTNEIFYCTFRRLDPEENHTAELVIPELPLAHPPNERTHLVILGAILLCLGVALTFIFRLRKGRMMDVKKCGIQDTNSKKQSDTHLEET

Sequence of PD-L1 His protein / PD-1 Fc protein (Q9NZQ7 19-238): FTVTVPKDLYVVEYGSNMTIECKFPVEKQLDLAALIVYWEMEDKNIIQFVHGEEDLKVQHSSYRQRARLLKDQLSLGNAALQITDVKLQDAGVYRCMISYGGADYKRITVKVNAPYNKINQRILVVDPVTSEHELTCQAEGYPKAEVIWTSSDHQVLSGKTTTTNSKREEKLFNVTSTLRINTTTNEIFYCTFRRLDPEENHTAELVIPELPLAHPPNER

| SMILES | IC50 [1] [nM] | EC50 (human PD-L1) [nM] |
| --- | --- | --- |
| COc1nc(-c2cccc(-c3ccnc(-c4cnc5cc(CNC[C@@H]6CCC(=O)N6)ccc5c4)c3Cl)c2Cl)ccc1CNC[C@@H]1CCC(=O)N1 [Compound 52, (S)-5-((((6-(2-chloro-3-(3-chloro-2-(7-(((((S)-5-oxopyrrolidin-2-yl)methyl)amino)methyl)quinolin-3-yl)pyridin-4-yl)phenyl)-2-methoxypyridin-3-yl)methyl)amino)methyl)pyrrolidin-2-one] | 0.2 | 127 |
| COc1nc(-c2cccc(-c3ccnc(-c4ccc5c(CNC6CN(C(C)=O)C6)cn(C)c5c4)c3Cl)c2Cl)ccc1CNC[C@@H]1CCC(=O)N1 [Compound 55, (S)-5-((((6-(3-(2-(3-(((1-acetylazetidin-3-yl)amino)methyl)-1-methyl-1H-indol-6-yl)-3-chloropyridin-4-yl)-2-chlorophenyl)-2-methoxypyridin-3-yl)methyl)amino)methyl)pyrrolidin-2-one] | 4.9 | 127 |
| COc1nc(-c2cccc(-c3ccnc(-c4ccc5c(CN(C)C6CCN(C(C)=O)CC6)cn(C)c5c4)c3Cl)c2Cl)ccc1CNC[C@@H]1CCC(=O)N1 [Compound 56, (S)-5-((((6-(3-(2-(3-(((1-acetylpiperidin-4-yl)(methyl)amino)methyl)-1-methyl-1H-indol-6-yl)-3-chloropyridin-4-yl)-2-chlorophenyl)-2-methoxypyridin-3-yl)methyl)amino)methyl)pyrrolidin-2-one] | 4 | 36.8 |
| COc1nc(-c2cccc(-c3ccnc(-c4ccc5c(c4)CN(CCNC[C@@H]4CCC(=O)N4)C5=O)c3Cl)c2Cl)ccc1CNC[C@@H]1CCC(=O)N1 [Compound 66, 5-(3-chloro-4-(2-chloro-3-(6-methoxy-5-(((((S)-5-oxopyrrolidin-2-yl)methyl)amino)methyl)pyridin-2-yl)phenyl)pyridin-2-yl)-2-(2-((((S)-5-oxopyrrolidin-2-yl)methyl)amino)ethyl)isoindolin-1-one] | 0.6 | 158 |
| COc1nc(-c2cccc(-c3ccnc(-c4ccc5c(CNC6CCC(F)(F)CC6)cn(C)c5c4)c3Cl)c2Cl)ccc1CNC[C@@H]1CCC(=O)N1 [Compound 73, (S)-5-((((6-(2-chloro-3-(3-chloro-2-(3-(((4,4-difluorocyclohexyl)amino)methyl)-1-methyl-1H-indol-6-yl)pyridin-4-yl)phenyl)-2-methoxypyridin-3-yl)methyl)amino)methyl)pyrrolidin-2-one] | 0.9 | 184 |
| COc1nc(-c2cccc(-c3ccnc(-c4cc5c(=O)n(C)c(CN[C@H]6C[C@](C)(O)C6)nn5c4)c3Cl)c2Cl)cc(Cl)c1CNC[C@@H]1CCC(=O)N1 [Compound 87, 6-(3-chloro-4-(2-chloro-3-(4-chloro-6-methoxy-5-(((((S)-5-oxopyrrolidin-2-yl)methyl)amino)methyl)pyridin-2-yl)phenyl)pyridin-2-yl)-2-((((1r,3r)-3-hydroxy-3-methylcyclobutyl)amino)methyl)-3-methylpyrrolo[2,1-f][1,2,4]triazin-4(3H)-one] | 3 | 312 |
| COc1nc(-c2cccc(-c3ccnc(-c4cc5c(=O)n(C)c(CNC[C@H](C)O)nn5c4)c3Cl)c2Cl)ccc1CNC[C@@H]1CCC(=O)N1 [Compound 91, 6-(3-chloro-4-(2-chloro-3-(6-methoxy-5-(((((S)-5-oxopyrrolidin-2-yl)methyl)amino)methyl)pyridin-2-yl)phenyl)pyridin-2-yl)-2-((((S)-2-hydroxypropyl)amino)methyl)-3-methylpyrrolo[2,1-f][1,2,4]triazin-4(3H)-one] | 4.4 | 221 |
| CNCc1cn(C)c2nc(-c3cccc(-c4ccnc(-c5ccc(CNC[C@@H]6CCC(=O)N6)c(OC)c5)c4Cl)c3Cl)ccc12 [Compound 94, (S)-5-(((4-(3-chloro-4-(2-chloro-3-(1-methyl-3-((methylamino)methyl)-1H-pyrrolo[2,3-b]pyridin-6-yl)phenyl)pyridin-2-yl)-2-methoxybenzyl)amino)methyl)pyrrolidin-2-one] | 0.5 | 47.5 |
| COc1cc(-c2nccc(-c3cccc(-c4ccc5c(CNC6CN(C(C)=O)C6)cn(C)c5n4)c3Cl)c2Cl)ccc1CNC[C@@H]1CCC(=O)N1 [Compound 95, (S)-5-(((4-(4-(3-(3-(((1-acetylazetidin-3-yl)amino)methyl)-1-methyl-1H-pyrrolo[2,3-b]pyridin-6-yl)-2-chlorophenyl)-3-chloropyridin-2-yl)-2-methoxybenzyl)amino)methyl)pyrrolidin-2-one] | 0.6 | 104 |
| COc1cc(-c2nccc(-c3cccc(-c4ccc5c(CNC6CCC(F)(F)CC6)cn(C)c5n4)c3Cl)c2Cl)ccc1CNC[C@@H]1CCC(=O)N1 [Compound 96, (S)-5-(((4-(3-chloro-4-(2-chloro-3-(3-(((4,4-difluorocyclohexyl)amino)methyl)-1-methyl-1H-pyrrolo[2,3-b]pyridin-6-yl)phenyl)pyridin-2-yl)-2-methoxybenzyl)amino)methyl)pyrrolidin-2-one] | 0.6 | 230 |
| COc1cc(-c2nccc(-c3cccc(-c4ccc5c(CNCCO)cn(C)c5n4)c3Cl)c2Cl)ccc1CNC[C@@H]1CCC(=O)N1 [Compound 97, (S)-5-(((4-(3-chloro-4-(2-chloro-3-(3-(((2-hydroxyethyl)amino)methyl)-1-methyl-1H-pyrrolo[2,3-b]pyridin-6-yl)phenyl)pyridin-2-yl)-2-methoxybenzyl)amino)methyl)pyrrolidin-2-one] | 0.5 | 28.3 |
| COc1cc(-c2nccc(-c3cccc(-c4ccc5c(CNC[C@H](C)O)cn(C)c5n4)c3Cl)c2Cl)ccc1CNC[C@@H]1CCC(=O)N1 [Compound 98, (S)-5-(((4-(3-chloro-4-(2-chloro-3-(3-((((S)-2-hydroxypropyl)amino)methyl)-1-methyl-1H-pyrrolo[2,3-b]pyridin-6-yl)phenyl)pyridin-2-yl)-2-methoxybenzyl)amino)methyl)pyrrolidin-2-one] | 0.7 | 30.5 |
| COc1cc(-c2nccc(-c3cccc(-c4ccc5c(CNCC(C)(C)O)cn(C)c5n4)c3Cl)c2Cl)ccc1CNC[C@@H]1CCC(=O)N1 [Compound 99, (S)-5-(((4-(3-chloro-4-(2-chloro-3-(3-(((2-hydroxy-2-methylpropyl)amino)methyl)-1-methyl-1H-pyrrolo[2,3-b]pyridin-6-yl)phenyl)pyridin-2-yl)-2-methoxybenzyl)amino)methyl)pyrrolidin-2-one] | 0.7 | 47.8 |
| COCCNCc1cn(C)c2nc(-c3cccc(-c4ccnc(-c5ccc(CNC[C@@H]6CCC(=O)N6)c(OC)c5)c4Cl)c3Cl)ccc12 [Compound 100, (S)-5-(((4-(3-chloro-4-(2-chloro-3-(3-(((2-methoxyethyl)amino)methyl)-1-methyl-1H-pyrrolo[2,3-b]pyridin-6-yl)phenyl)pyridin-2-yl)-2-methoxybenzyl)amino)methyl)pyrrolidin-2-one] | 0.9 | 59 |
| COc1cc(-c2nccc(-c3cccc(-c4ccc5c(CN(C)CCO)cn(C)c5n4)c3Cl)c2Cl)ccc1CNC[C@@H]1CCC(=O)N1 [Compound 101, (S)-5-(((4-(3-chloro-4-(2-chloro-3-(3-(((2-hydroxyethyl)(methyl)amino)methyl)-1-methyl-1H-pyrrolo[2,3-b]pyridin-6-yl)phenyl)pyridin-2-yl)-2-methoxybenzyl)amino)methyl)pyrrolidin-2-one] | 0.5 | 31 |

From patent publication US20240246964A1 (Arbutus Biopharma Corporation, priority 2021, published 2024)
